{"source": "paper PMC11352409", "about": "“Subtype-Specific Ligand Binding and Activation Gating in Homomeric and Heteromeric P2X Receptors” (Biomolecules, 2024)", "molecular_target": "T1, human P2X2/3 receptors (Homo sapiens, UniProt P56373+Q9UBL9)", "T1 construct": "expressed in transfected cells", "T1 sequence (Q9UBL9 1-404 isoform Q9UBL9-2)": "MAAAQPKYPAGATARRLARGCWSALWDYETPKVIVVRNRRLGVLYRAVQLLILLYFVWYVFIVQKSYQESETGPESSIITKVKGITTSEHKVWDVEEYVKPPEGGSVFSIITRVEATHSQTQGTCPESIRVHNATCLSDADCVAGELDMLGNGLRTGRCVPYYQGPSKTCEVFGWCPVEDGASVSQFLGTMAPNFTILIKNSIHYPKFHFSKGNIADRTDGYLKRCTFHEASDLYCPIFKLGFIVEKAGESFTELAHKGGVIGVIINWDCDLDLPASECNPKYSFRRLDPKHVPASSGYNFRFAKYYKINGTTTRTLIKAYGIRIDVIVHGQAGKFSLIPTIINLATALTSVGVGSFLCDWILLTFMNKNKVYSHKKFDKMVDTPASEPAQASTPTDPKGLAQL", "T1 sequence (P56373 1-397)": "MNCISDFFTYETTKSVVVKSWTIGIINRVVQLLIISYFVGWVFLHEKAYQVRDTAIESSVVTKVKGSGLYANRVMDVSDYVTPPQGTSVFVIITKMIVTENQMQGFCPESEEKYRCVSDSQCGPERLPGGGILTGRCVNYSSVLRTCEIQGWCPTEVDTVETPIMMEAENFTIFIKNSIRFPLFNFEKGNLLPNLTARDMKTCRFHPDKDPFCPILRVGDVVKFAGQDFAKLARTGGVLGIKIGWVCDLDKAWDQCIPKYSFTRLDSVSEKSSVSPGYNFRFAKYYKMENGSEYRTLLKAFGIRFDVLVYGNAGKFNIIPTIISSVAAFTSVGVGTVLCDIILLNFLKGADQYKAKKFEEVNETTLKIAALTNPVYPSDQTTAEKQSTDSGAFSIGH", "experiment": "Confocal binding versus activation of fATP at hP2X2/3 in HEK293 cells", "settings": "hP2X2/3, activation rescaled to value at maximal concentration", "protocol": "For the detection of ligand binding, the cells were incubated with the fluorescent ATP derivatives in chambered coverslips or 96-well plates with cover-slip bottoms. The surface was coated with 0.1 mg/mL of poly-L-lysine for 12 h and washed twice with PBS before seeding the cells at […] density. The cells were suspended 24 h after induction and allowed to settle for two hours before being utilised for the measurements. The solutions were freshly prepared before each experiment. The bulk solution was counter-stained with the red fluorescence dye Dy647. Each confocal voxel covering the cell membrane contained both the signal from the bound ligand and the signal from ligands in the bulk solution. This additional signal, e.g., the fraction of the bulk solution inside a voxel, varied from pixel to pixel and can hardly be described theoretically.\nBecause the difference in image noise contributed within both the bulk solution and the cells, the cell–bulk interfaces were selected using a Sobel operator [31] and appropriate filters/thresholds on the reference fluorophore signal. Note that only cell–bulk boundaries and not cell–cell boundaries were included in this approach. The method was described in detail previously.\nThe concentration–binding relationships were normalised to their maximum relative fluorescence intensities at a saturating fATP or α,βMe-fATP concentration. […]"}
{"smiles": "COCC[N+]1=C(C=CC=C2N(CCCCCC(=O)NCCCCCCSc3nc(N)c4ncn(C5OC(COP(=O)(O)OP(=O)(O)OP(=O)(O)O)C(O)C5O)c4n3)c3ccc(S(=O)(=O)O)cc3C2(C)C)C(C)(C)c2cc(S(=O)(=O)[O-])ccc21", "note": "(stereo not shown) [fATP, 2-[DY-547P1]-AHT-ATP]", "values": [{"measurement": "Concentration at which normalised concentration-activation and concentration-binding curves intersect", "value": "approximately 0.5 µM"}]}
